Source: patent US11207290B2, “Combinations of cannabinoids and N-acylethanolamines” (SciSparc Ltd., priority 2015, dated 2021)
Entries after “also recorded” stand apart in the source; their conditions may differ.

Tests used:
Mice, strain ICR [1] = test: Tail pinch test (modified Haffner's method); format: in vivo; details: for Latency to respond: vs control
Procedure: (§1) Animals—Mice, strain ICR, male, 8 weeks of age at study initiation. The average animal body weight at study initiation was in the range of 31.97±1.61 g. […] Animals were randomly allocated to individual cages on the day of reception. Animals were acclimated for seven to nine days.
(§2) Test item was administered […] at a dose volume of 10 ml/kg according to the doses in Table 1. Dosing was performed 15 minutes before each of the behavioral tests.
Tail pinch tests were performed as follows, according to the modified Haffner's method (as depicted in Takagi et al., Jpn. J. Pharmacol., 1966, 16, Pages 287-294)—Mice were pretested by pinching their tail base with an artery clip (1.5 mm width, constant force), and only the mice that show a nociceptive response such as biting the clip or vocalizing within 2 sec were used for experiments. […] To prevent tissue damage, the pressure stimuli was not applied for more than 10 sec. After drug treatments, the nociceptive response in the tail-pinch test was measured at varying intervals.
(§3) Statistical analysis—Numerical results were given as means±standard error of the mean. The results were subjected either to a T-test or to two-way ANOVA, followed by Bonferroni post-hoc contrast analysis between the groups where applicable. A probability of less than 5% (p<0.05) was regarded as significant.

adult TS patients [2] = details: single dose of 5, 7.5 or 10 mg THC compared with placebo, p=0.015; cited from earlier work
[3] = widely considered; Buxbaum 1972; cited from earlier work
adult TS patients [4] = details: 2.5 mg THC per day titrated to 10 mg, vs placebo, visits 3 and 4, p<0.05; cited from earlier work
[5] = Body weight gain during the study; format: in vivo, mice; details: vs vehicle group 1M
Procedure: as §1, §2, §3

Mice, strain ICR [6] = test: Open Field (OF) test; format: in vivo; details: 15 minute session; for Average animal velocity (uncontrolled movement): FIG. 2
Procedure: as §1, §2
Open Field (OF) tests were performed as follows—Fifteen minutes after test item/vehicle administration, mice were placed at the center of an open field box (43×43×40 cm) between 9 AM and 5 PM. On each side of the open field box, two frames placed at 2 and 5 cm height with 16 photocell beams per side ensure movement detection. The computer defined grid lines that divided the open field into two compartments: margin and center. Several variables were recorded during a 15 minute session of spontaneous activity including: time spent moving, traveled distance, time spent and number of visits to the central compartment.
as §3

SMILES: CCCCCc1cc(O)c2c(c1)OC(C)(C)[C@@H]1CCC(C)=C[C@@H]21 [THC, (−)-trans-Δ9-tetrahydrocannabinol]
- Analgesic effect at 15′ post administration (Mice, strain ICR [1]; group 2M: THC 50 mg/kg): only group 4M exhibited an analgesic effect
- Latency to respond (Mice, strain ICR [1]; group 2M: high dose THC 50 mg/kg, FIG. 4A): higher compared to the control
- Analgesic effect at 15′ post administration (Mice, strain ICR [1]; group 3M: THC 12.5 mg/kg): exhibited an analgesic effect
- Latency to respond (Mice, strain ICR [1]; group 3M: low dose THC 12.5 mg/kg, FIG. 4B): higher compared to the control
- Tourette Syndrome Symptom List (TSSL) self-rating (adult TS patients [2]): significant global tic improvement
- Minimal effective dose of THC as an analgesic [3]: 20 mg/kg
- Global Clinical Impression Scale (GCIS) (adult TS patients [4]): significant difference
- Body weight (BW) gain ([5]; group 2M: THC 50 mg/kg, FIG. 1A): characteristic weight gain
- Body weight (BW) gain ([5]; group 3M: THC 12.5 mg/kg, FIG. 1B): increased; also recorded: characteristic weight gain
- Average animal velocity (uncontrolled movement) (Mice, strain ICR [6]; group 2M: THC 50 mg/kg, vs control 1M): significantly increased the velocity
- Total time spent in the center of an arena (measure of anxiety) (Mice, strain ICR [6]; group 2M: THC 50 mg/kg, FIG. 3): decreased the time spent in the center
- Average animal velocity (uncontrolled movement) (Mice, strain ICR [6]; group 3M: THC 12.5 mg/kg): had no effect
